Experimental data as given in patent publication US10940139B2, “Compounds that interact with the Ras superfamily for the treatment of cancers, inflammatory diseases, rasopathies, and fibrotic disease” (Shy Therapeutics LLC, priority 2017, dated 2021).

Key:
[1] = tested on: TNFα production in RAW 264.7 macrophage cell line; assay: Mouse TNF alpha quantification assay (LPS-stimulated macrophages, ELISA); type: cell-based; settings: RAW264.7, RAW 264.7 murine leukemia virus transformed macrophage cell lines, LPS stimulation, read-out: TNF-α % Inhibition at 30 μM
[2] = tested on: IL6 production in RAW 264.7 macrophage cell line; assay: Mouse IL6 quantification assay (LPS-stimulated macrophages, ELISA); type: cell-based; settings: RAW264.7, RAW 264.7 murine leukemia virus transformed macrophage cell lines, LPS stimulation, read-out: IL-6 % Inhibition at 30 μM

SMILES	inhibition at 30 µM [1] [%]	inhibition at 30 µM [2] [%]
COc1ccc(C2CN(C(=O)c3csc4c(O)nc(-c5ccccn5)nc34)CCN2)cc1 (stereo not shown) [drawing 2198]	0	51 to 75
Cc1ccccc1C1CN(C(=O)c2csc3c(O)nc(-c4ccccn4)nc23)CCN1 (stereo not shown) [drawing 2199]	1 to 25	76 to 100
O=C(c1csc2c(O)nc(-c3ccccn3)nc12)N1CCNC(c2ccccc2F)C1 (stereo not shown) [drawing 2200]	1 to 25	76 to 100
Cn1cc(C2CN(C(=O)c3csc4c(O)nc(-c5ccccn5)nc34)CCN2)cn1 (stereo not shown) [drawing 2201]	76 to 100	76 to 100
O=C(c1csc2c(O)nc(-c3ccccn3)nc12)N1CCNC(Cc2ccccc2)C1 (stereo not shown) [drawing 2202]	1 to 25	76 to 100
COc1ccnc(-c2nc(O)c3c(C#N)csc3n2)c1 [drawing 2203]	0	1 to 25
O=C(NCCc1ccc(O)c(O)c1)c1csc2nc(-c3ccccn3)nc(N3CCOCC3)c12 [drawing 2204]	0	1 to 25
COCCCCNC(=O)c1csc2nc(-c3ccccn3)nc(N3CCOCC3)c12 [drawing 2205]	1 to 25	1 to 25
COCCN(CCOC)c1nc(-c2ccccn2)nc2scc(C(=O)NCCc3ccc(OC)nc3)c12 [drawing 2206]	0	1 to 25
COc1ccc2c(c1)CCC2C(=O)Nc1ccnc(-c2ccccn2)n1 (stereo not shown) [drawing 2207]	0	26 to 50
N#Cc1ccc(COCC(=O)Nc2ccnc(-c3ccccn3)n2)cc1 [drawing 2208]	1 to 25	1 to 25
Cc1cnc(-c2ccccn2)nc1NC(=O)C(C)c1ccc(C#N)cc1 (stereo not shown) [drawing 2209]	1 to 25	1 to 25
CC(C(=O)Nc1nc(-c2ccccn2)nc2sccc12)c1ccc(C#N)cc1 (stereo not shown) [drawing 2210]	0	51 to 75
N#Cc1ccc(COCC(=O)Nc2nc(-c3ccccn3)nc3sccc23)cc1 [drawing 2211]	1 to 25	51 to 75
COc1cnc(CN)[nH]c1=O [drawing 2212]	1 to 25	0
COc1ccc(N2CCN(C(=O)c3csc4c(O)nc(-c5ccccn5)nc34)CC2)cc1O [drawing 2213]	0	26 to 50
O=C(c1csc2c(O)nc(-c3ccccn3)nc12)N1CCN(c2ccc(O)c(Cl)c2)CC1 [drawing 2214]	0	26 to 50
CC(c1ccccc1)N1CCN(C(=O)c2csc3c(O)nc(-c4ccccn4)nc23)CC1 (stereo not shown) [drawing 2215]	0	51 to 75
O=C(c1csc2c(O)nc(-c3ccccn3)nc12)N1CCNC(c2ccccc2Cl)C1 (stereo not shown) [drawing 2216]	0	51 to 75
O=C(c1csc2c(O)nc(-c3ccccn3)nc12)N1CCNC(c2ccc(F)cc2)C1 (stereo not shown) [drawing 2217]	0	1 to 25
O=C(c1csc2c(O)nc(-c3ccccn3)nc12)N1CCNC(c2ccc(O)cc2)C1 (stereo not shown) [drawing 2218]	0	1 to 25
COCCCCNC(=O)c1csc2nc(-c3ccccn3)nc(N3CCS(=O)(=O)CC3)c12 [drawing 2219]	0	26 to 50

SMILES	inhibition at 30 µM [1] [%]	inhibition at 30 µM [2] [%]
Cc1cnc(-c2ccccn2)nc1NC(=O)C1CCCc2cc(C#N)ccc21 (stereo not shown) [drawing 2220]	51 to 75	76 to 100
O=C(COCc1ccncc1)Nc1nc(-c2ccccn2)nc2sccc12 [drawing 2221]	1 to 25	76 to 100
O=C(COCc1cccnc1)Nc1nc(-c2ccccn2)nc2sccc12 [drawing 2222]	1 to 25	51 to 75
COc1cccc(CC2CN(C(=O)c3csc4c(O)nc(-c5ccccn5)nc34)CCN2)c1 (stereo not shown) [drawing 2223]	1 to 25	1 to 25
O=C(c1csc2c(O)nc(-c3ccccn3)nc12)N1CCNC(Cc2ccc(F)cc2)C1 (stereo not shown) [drawing 2224]	1 to 25	26 to 50
COc1ccnc(-c2nc(O)c3c(C(F)(F)F)csc3n2)c1 [drawing 2226]	1 to 25	51 to 75
Nc1nc(-c2ccccn2)nc2ccsc12 [drawing 2227]	1 to 25	0
Nc1nc(-c2ccccn2)nc2c(-c3ccccc3Cl)csc12 [drawing 2228]	1 to 25	76 to 100
Cc1cc2nc(-c3ccccn3)nc(N)c2s1 [drawing 2229]	1 to 25	1 to 25
Cc1sc2c(N)nc(-c3ccccn3)nc2c1-c1ccccc1 [drawing 2230]	1 to 25	51 to 75
O=C(c1csc2c(O)nc(-c3ccccn3)nc12)N1CC2CC1CN2c1ccccc1 (stereo not shown) [drawing 2231]	0	51 to 75
O=C(c1csc2c(O)nc(-c3ccccn3)nc12)N1CCC(c2ccncc2)C1 (stereo not shown) [drawing 2232]	1 to 25	76 to 100
O=C(c1csc2c(O)nc(-c3ccccn3)nc12)N1CCC(c2cccc(O)c2)C1 (stereo not shown) [drawing 2233]	26 to 50	76 to 100
O=C(c1cc2nc(-c3ccccn3)nc(O)c2s1)N1CCN(c2ccccc2)CC1 [drawing 2234]	0	26 to 50
O=C(c1cc2nc(-c3ccccn3)nc(O)c2s1)N1CCOC(c2ccccc2)C1 (stereo not shown) [drawing 2235]	1 to 25	1 to 25
O=C(NCCc1cccnc1)c1cc2nc(-c3ccccn3)nc(O)c2s1 [drawing 2236]	1 to 25	26 to 50
Cc1ccc(OC2CCCC2)c(-c2csc3c(O)nc(-c4ccccn4)nc23)c1 [drawing 2237]	51 to 75	76 to 100
CN(C)Cc1ccc(-c2csc3c(O)nc(-c4ccccn4)nc23)cc1F [drawing 2238]	51 to 75	76 to 100
COCc1ccc(-c2csc3c(O)nc(-c4ccccn4)nc23)cc1F [drawing 2239]	51 to 75	76 to 100
CC(C)(C)c1ccc(-c2csc3c(O)nc(-c4ccccn4)nc23)cc1 [drawing 2240]	76 to 100	76 to 100
Oc1nc(-c2ccccn2)nc2c(-c3cc(Cl)cc(Cl)c3)csc12 [drawing 2241]	1 to 25	0
Oc1nc(-c2ccccn2)nc2c(-c3cccc4c3OCO4)csc12 [drawing 2242]	51 to 75	51 to 75

SMILES	inhibition at 30 µM [1] [%]	inhibition at 30 µM [2] [%]
O=C(O)c1cc2nc(-c3ccccn3)nc(O)c2s1 [drawing 2243]	1 to 25	1 to 25
Oc1nc(-c2ccccn2)nc2sc3c(c12)CCNC3 [drawing 2244]	26 to 50	26 to 50
Oc1nc(-c2ccccn2)nc2sc3c(c12)CCCNC3 [drawing 2245]	1 to 25	1 to 25
COc1ccc(CCNC(=O)c2csc3nc(-c4ccccn4)nc(N4CCS(=O)(=O)CC4)c23)cn1 [drawing 2246]	0	26 to 50
O=C(NCCc1cnc(O)nc1)c1csc2nc(-c3ccccn3)nc(N3CCS(=O)(=O)CC3)c12 [drawing 2247]	0	51 to 75
N#Cc1ccc2c(c1)CCCC2C(=O)Nc1ccnc(-c2ccccn2)n1 (stereo not shown) [drawing 2248]	0	1 to 25
Cc1cnc(-c2ccccn2)nc1NC(=O)Cc1ccc2cnccc2c1 [drawing 2249]	0	76 to 100
O=C(COCc1ccnc(O)c1)Nc1nc(-c2ccccn2)nc2sccc12 [drawing 2250]	0	26 to 50
Nc1nc(-c2ccccn2)nc2c(-c3ccccc3)csc12 [drawing 2251]	51 to 75	76 to 100
Oc1nc(-c2ccccn2)nc2c(-c3cc(F)ccc3OC(F)F)csc12 [drawing 2252]	26 to 50	76 to 100
Cn1nnc2ccc(-c3csc4c(O)nc(-c5ccccn5)nc34)cc21 [drawing 2253]	1 to 25	76 to 100
Oc1nc(-c2ccccn2)nc2c(-c3ccc(OC4CCOC4)cc3)csc12 (stereo not shown) [drawing 2254]	26 to 50	76 to 100
Oc1nc(-c2ccccn2)nc2c(-c3ccc(OC4CCCC4)cc3)csc12 [drawing 2255]	0	76 to 100
O=S1(=O)CCN(Cc2cccc(-c3csc4c(O)nc(-c5ccccn5)nc34)c2)CC1 [drawing 2256]	1 to 25	76 to 100
Oc1nc(-c2ccccn2)nc2c(-c3ccc(C4CCC4)cc3)csc12 [drawing 2257]	0	51 to 75
Oc1nc(-c2ccccn2)nc2c(-c3ccccc3OC3CCCCC3)csc12 [drawing 2258]	26 to 50	76 to 100
Oc1nc(-c2ccccn2)nc2c(-c3ccc(OC4CCOCC4)cc3)csc12 [drawing 2259]	0	76 to 100
Oc1nc(-c2ccccn2)nc2c(-c3ccccc3F)csc12 [drawing 2260]	51 to 75	76 to 100
COc1cc(C)c(-c2csc3c(O)nc(-c4ccccn4)nc23)cc1C [drawing 2261]	0	51 to 75
COc1ccccc1-c1csc2c(O)nc(-c3ccccn3)nc12 [drawing 2262]	51 to 75	76 to 100
Oc1nc(-c2ccccn2)nc2c(-c3ccc(F)cc3F)csc12 [drawing 2263]	26 to 50	76 to 100
